In assay [1] the target is T1, PhGal4E_1 (Pyrococcus horikoshii, UniProt O73960).
T1 sequence (O73960 1-318): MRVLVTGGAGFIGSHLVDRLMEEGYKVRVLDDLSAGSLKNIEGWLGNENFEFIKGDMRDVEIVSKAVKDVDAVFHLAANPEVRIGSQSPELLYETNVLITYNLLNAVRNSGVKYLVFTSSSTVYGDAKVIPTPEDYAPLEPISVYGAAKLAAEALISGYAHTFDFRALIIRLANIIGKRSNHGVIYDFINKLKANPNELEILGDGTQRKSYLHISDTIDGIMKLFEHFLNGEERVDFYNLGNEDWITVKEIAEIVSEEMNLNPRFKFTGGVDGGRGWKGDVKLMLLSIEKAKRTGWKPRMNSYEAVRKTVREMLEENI
Description: X-ray crystal structure, […] Å, crystal soaking. The assay is classed as binding. The settings on record: soaked 1-3 min with 10 mM GDP-L-Fuc; active site, NAD+ bound.

In assay [2] the target is PhGal4E_1 variant Y145F (Pyrococcus horikoshii). Description: crystal structure.

Consider `C[C@@H]1O[C@H](OP(=O)(O)OP(=O)(O)OC[C@H]2O[C@@H](n3cnc4c(=O)[nH]c(N)nc43)[C@H](O)[C@@H]2O)[C@@H](O)[C@H](O)[C@@H]1O` [GDP-L-Fuc], for which the “X-ray crystal structure, 2.4 Å, crystal soaking” value in assay [1] is “NAD^+ cofactor and GDP-L-Fuc bound in the active site of the WT (PDB ID: 8RDH”.
As usually defined, the stoichiometry N is the number of molecules, sites or subunits per partner or assembly. PhGal4E_1 variant Y145F (enzyme): the stoichiometry N in assay [2] came out at 2.

The record behind these values is PMC12171764 (Computational and Structural Biotechnology Journal, 2025).
